# Read-outs that look alike come from different tables or passages of the source.
# Columns and labels:
# in vitro [1] = assay: in vitro; set-up: species or system HB2, CCD841; conditions: human, hek293 cells
# in vitro [2] = assay: in vitro; set-up: species or system CCD841, HEK293; conditions: human, hb2 cells, read-out: HB-2 Cells Viability (%)
# BSA = molecular target: T1, BSA (Bos taurus, UniProt P02769); set-up: Intact protein LC/MS covalent labelling, fragments in pools of five, 200 uM each, 4 °C; conditions: 24 h, 4 °C, pool of five; 200 µM; covalent
# T1 construct: gene ALB
# PCAF = molecular target: T2, PCAF (Homo sapiens, UniProt Q92831); set-up: Intact protein LC/MS covalent labelling, fragments in pools of five, 200 uM each, 4 °C; conditions: 24 h, 4 °C, pool of five; 200 µM; covalent
# T2 construct: gene KAT2B
# NNMT (hNNMT) = molecular target: T3, NNMT (hNNMT) (Homo sapiens, UniProt P40261); set-up: Intact protein LC/MS covalent labelling, fragments in pools of five, 200 uM each, 4 °C; conditions: 24 h, 4 °C, pool of five; 200 µM; covalent
# T3 construct: wild type, N-terminal His6 tag kept (no cleavage described), E. coli, construct 31248 Da
# T3 sequence (P40261 1-264): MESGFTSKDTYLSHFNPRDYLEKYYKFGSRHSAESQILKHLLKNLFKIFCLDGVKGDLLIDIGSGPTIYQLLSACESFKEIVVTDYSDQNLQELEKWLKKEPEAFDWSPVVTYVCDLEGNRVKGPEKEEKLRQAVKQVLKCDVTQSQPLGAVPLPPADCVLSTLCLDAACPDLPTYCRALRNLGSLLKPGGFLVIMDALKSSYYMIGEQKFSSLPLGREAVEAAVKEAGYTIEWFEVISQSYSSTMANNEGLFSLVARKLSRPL
# OTUB2 (OTUB2A) = molecular target: T4, OTUB2 (OTUB2A) (Homo sapiens, UniProt Q96DC9); set-up: Intact protein LC/MS covalent labelling, fragments in pools of five, 200 uM each, 4 °C; conditions: 24 h, 4 °C, pool of five; 200 µM; covalent
# T4 construct: full length residues 1-234, E. coli BL21(DE3)-R3, His tag removed by TEV, construct 27312 Da
# T4 sequence (Q96DC9 1-234): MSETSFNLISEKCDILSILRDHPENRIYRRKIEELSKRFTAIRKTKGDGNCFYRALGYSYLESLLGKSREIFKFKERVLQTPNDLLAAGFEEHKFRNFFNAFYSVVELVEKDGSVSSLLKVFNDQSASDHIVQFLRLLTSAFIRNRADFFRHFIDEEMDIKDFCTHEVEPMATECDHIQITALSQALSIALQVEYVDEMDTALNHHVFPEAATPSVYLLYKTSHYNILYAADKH
# NUDT7 = molecular target: T5, NUDT7 (Homo sapiens, UniProt P0C024); set-up: Intact protein LC/MS covalent labelling, fragments in pools of five, 200 uM each, 4 °C; conditions: 24 h, 4 °C, pool of five; 200 µM; covalent
# T5 construct: residues 14-235, E. coli, pNIC28-Bsa4, N-terminal His6 tag removed by TEV, construct 26672 Da
# in vitro [3] = assay: in vitro; set-up: species or system HB2, HEK293; conditions: human, ccd841 cells
# T5 sequence (P0C024 14-235): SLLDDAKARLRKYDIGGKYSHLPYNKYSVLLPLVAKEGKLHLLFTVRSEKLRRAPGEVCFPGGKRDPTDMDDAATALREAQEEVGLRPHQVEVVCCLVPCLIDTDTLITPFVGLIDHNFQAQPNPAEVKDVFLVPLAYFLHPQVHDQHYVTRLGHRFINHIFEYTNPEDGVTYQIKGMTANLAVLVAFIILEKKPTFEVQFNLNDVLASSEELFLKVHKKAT
# T1 sequence (P02769 whole entry, the tested form may be a part): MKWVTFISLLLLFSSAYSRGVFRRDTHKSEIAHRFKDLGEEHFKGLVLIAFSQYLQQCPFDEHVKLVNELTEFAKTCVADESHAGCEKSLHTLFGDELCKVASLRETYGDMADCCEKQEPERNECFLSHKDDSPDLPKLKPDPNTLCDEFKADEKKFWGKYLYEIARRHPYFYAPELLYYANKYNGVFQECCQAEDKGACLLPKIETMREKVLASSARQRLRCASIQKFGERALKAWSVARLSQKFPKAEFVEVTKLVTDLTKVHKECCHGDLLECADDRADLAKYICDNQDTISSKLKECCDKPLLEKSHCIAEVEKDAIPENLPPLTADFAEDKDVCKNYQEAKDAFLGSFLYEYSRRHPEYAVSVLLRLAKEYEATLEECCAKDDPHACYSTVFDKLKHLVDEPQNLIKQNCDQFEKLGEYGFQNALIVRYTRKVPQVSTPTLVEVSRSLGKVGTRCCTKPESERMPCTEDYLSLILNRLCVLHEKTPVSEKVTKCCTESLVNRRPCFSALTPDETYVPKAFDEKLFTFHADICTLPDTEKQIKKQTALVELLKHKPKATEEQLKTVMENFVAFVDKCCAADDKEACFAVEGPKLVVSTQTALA
# T2 sequence (Q92831 whole entry, the tested form may be a part): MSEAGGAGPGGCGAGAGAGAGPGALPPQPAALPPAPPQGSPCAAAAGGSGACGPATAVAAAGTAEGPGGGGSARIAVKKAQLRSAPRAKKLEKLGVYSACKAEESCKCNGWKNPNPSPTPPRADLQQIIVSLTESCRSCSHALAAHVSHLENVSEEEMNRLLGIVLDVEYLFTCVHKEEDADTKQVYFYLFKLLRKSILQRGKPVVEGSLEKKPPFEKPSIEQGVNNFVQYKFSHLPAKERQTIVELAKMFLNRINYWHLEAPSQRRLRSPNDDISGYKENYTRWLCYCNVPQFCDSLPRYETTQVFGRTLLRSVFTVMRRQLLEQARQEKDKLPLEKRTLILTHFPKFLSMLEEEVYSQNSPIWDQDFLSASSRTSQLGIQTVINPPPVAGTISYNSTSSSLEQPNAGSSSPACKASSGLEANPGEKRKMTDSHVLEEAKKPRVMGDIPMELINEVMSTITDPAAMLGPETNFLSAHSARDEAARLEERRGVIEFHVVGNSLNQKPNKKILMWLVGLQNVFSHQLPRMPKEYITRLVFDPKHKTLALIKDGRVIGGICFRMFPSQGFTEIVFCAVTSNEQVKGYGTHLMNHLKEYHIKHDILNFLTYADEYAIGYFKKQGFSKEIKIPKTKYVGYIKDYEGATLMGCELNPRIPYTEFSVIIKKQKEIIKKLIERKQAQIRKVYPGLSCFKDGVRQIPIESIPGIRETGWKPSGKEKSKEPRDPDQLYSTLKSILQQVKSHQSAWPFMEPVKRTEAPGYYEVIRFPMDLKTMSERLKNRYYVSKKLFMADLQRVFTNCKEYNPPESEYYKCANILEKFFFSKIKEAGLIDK
SMILES,BSA (BSA),PCAF (PCAF),NNMT (NNMT (hNNMT)),OTUB2 (OTUB2 (OTUB2A)),NUDT7 (NUDT7),"viability at 48 h, 10 µM (in vitro [1]) [%]","viability at 48 h, 10 µM (in vitro [2]) [%]","viability at 48 h, 10 µM (in vitro [3]) [%]"
O=C(CCl)NC12CC3CC(CC(C3)C1)C2 [PCM-0102118],0,0,0.23,0,0,71.1,83,76.1
O=C(CCl)Nc1ccccc1C(F)(F)F [PCM-0102170],0,0,0.12,0,0,72.6,96.7,99.1
COc1ccc(NC(=O)CCl)cc1Cl [PCM-0102652],0,0,0.83,0.24,0.12,2.6,10,29.3
O=C(CCl)N1CCNCC1.O=C(O)C(F)(F)F [PCM-0102476],0,0,0,0,0,92.4,101,100
CC(C)c1ccc(NC(=O)CCl)cc1 [PCM-0102532],0,0,0.68,0.33,0.18,7.1,12.7,40.4
O=C(CCl)Nc1ccccc1N1CCOCC1 [PCM-0102416],0,0,0,0,0,113,99.5,90.7
Cc1ccc(-c2cc(NC(=O)CCl)on2)cc1 [PCM-0102382],0,0,0.64,0.45,0.81,52.2,42.7,54.6
O=C(CCl)NC1C2CC3CC(C2)CC1C3 (stereo not drawn) [PCM-0102404],0,0,0,0.33,0,90.6,63.3,68.9
CN1C(=O)c2ccc(NC(=O)CCl)cc2C1=O [PCM-0102309],0,0,0,0.19,0.12,67.2,52.5,61.2
CC(C)c1cccc(NC(=O)CCl)c1 [PCM-0102429],0,0,0.52,0.23,0.1,17.7,17.7,57.3
CNC(=O)NC(=O)CCl [PCM-0102534],0,0,0,0,0,92.2,97.9,94.3

# Now from value to molecule, other results behind:
BSA (BSA),PCAF (PCAF),NNMT (NNMT (hNNMT)),OTUB2 (OTUB2 (OTUB2A)),NUDT7 (NUDT7),SMILES,"viability at 48 h, 10 µM (in vitro [1]) [%]","viability at 48 h, 10 µM (in vitro [2]) [%]","viability at 48 h, 10 µM (in vitro [3]) [%]"
0,0,0.29,0.86,0,Cc1cccc(CNC(=O)CCl)c1 [PCM-0102821],87.5,99.7,80.7
0,0,0.39,0.61,0.24,Cc1cc(Br)ccc1NC(=O)CCl [PCM-0102799],4.7,34.9,63.3
0,0,0,0,0.08,C=CC(=O)N1CCN(C(=O)CN2C(=O)CCC2=O)CC1 [PCM-0102684],105,99.9,103
0,0,0,0,0.08,O=C(CCl)N1CCOC1=O [PCM-0102943],108,101,109
0,0,0.17,0,0,C=CC(=O)N1CC=C(C(F)(F)F)CC1 [PCM-0102685],98,103,105
0,0,0,0.08,0,O=C(CCl)N1CCC(C(=O)N2CCCCC2)CC1 [PCM-0102972],76.6,84.6,106
0,0,0,0.14,0,N#Cc1ccc(C(=O)NNC(=O)CCl)cc1 [PCM-0102892],103,86.2,85.9
0,0,0.13,0.07,0,C=CC(=O)N1CCCC(Oc2ncccc2F)C1 (stereo not drawn) [PCM-0102725],80.3,108,109
0,0,0,0.43,0,O=C(CCl)NCc1cccc(F)c1 [PCM-0103047],88.1,83.7,69.7
0,0,0.24,0,0,O=C(CCl)Nc1nnc(CC(F)(F)F)o1 [PCM-0102779],102,106,99.9
0,0,0,0,0,C=CC(=O)N1CCCC1C(=O)Nc1nc2ccccc2s1 (stereo not drawn) [PCM-0102681],79.7,95.7,115
0,0,0.62,0,0.14,O=C(CCl)Nc1cccc(Cl)c1N1CCOCC1 [PCM-0102893],26.9,51.2,78
0,0,0,0,0,Cc1nc(C2(NC(=O)CCl)CCCCCC2)no1 [PCM-0102944],129,103,113
0,0,0.56,0,0.39,CC(=O)c1oc2ccccc2c1NC(=O)CCl [PCM-0102918],36.8,42.4,65.3
0,0,0,0,0,CN(Cc1cc(Br)cs1)C(=O)CCl [PCM-0103081],11.9,5.1,45.5
0,0,0.69,0,0,O=C(CCl)NC(=O)Nc1ccc2c(c1)OCCCO2 [PCM-0102910],81,67.5,67.2

# — PMC6556873, “Rapid Covalent-Probe Discovery by Electrophile-Fragment Screening” (Journal of the American Chemical Society, 2019)
